Earlier results on three molecules are cited in patent EP1782809A1, “Use of ligands of PPARGamma for inducing foetal lung maturity and the prevention of the respiratory-distress syndrome in premature infants” (Charité-Universitätsmedizin Berlin, priority 2005, dated 2007).

Like-named read-outs stand apart in the source and are kept apart here.

The conditions of data set [1]: rabbits; 20 or 75-fold of the maximal recommended human dosage.
Assay in data set [2]: not given
The source holds these as a separate data set.

For the molecule `CCc1ccc(CCOc2ccc(CC3SC(=O)NC3=O)cc2)nc1` (stereo not shown) [pioglitazone], for the setting “human, in vivo”, the “incidence of elevated transaminases” value is reported as “similar”.
As to `Cc1c(C)c2c(c(C)c1O)CCC(C)(COc1ccc(CC3SC(=O)NC3=O)cc1)O2` (stereo not shown) [troglitazone], the “incidence of elevated transaminases” value (human, in vivo) is “triplicated”.
Turning to `CN(CCOc1ccc(CC2SC(=O)NC2=O)cc1)c1ccccn1` (stereo not shown) [rosiglitazone], the teratogenic effect entry is on record as “no teratogenic effect” in data set [1] and “no teratogenic effect” in data set [2] (rats, 20 or 75-fold of the maximal recommended human dosage). For the same molecule, the foetal growth entry in data set [2] (late pregnancy, at this dose (20 or 75-fold of human dosage), species not stated in the sentence (rats or rabbits) [26]) is listed as “can slow down the foetal growth”. Further, in data set [2] (rats), the “effect on the implantation or embryogenesis” value is recorded as “no effect”. For the same molecule, where the note is “controlled clinical studies, compared to the placebo group [19]”, the “incidence of elevated transaminases” value was “similar”.
